Method: Then, SH556 (phenyl-modified silicone oil) was added to this liquid crystal composition to prepare the liquid crystal composition of the present invention.
(§1) The solubilized concentration (saturated concentration of solubilization) of oil was measured by sample appearance, for example, cloudiness or phase separation.
Then, a mixed oil of SH556 and squalane or a mixed oil of KF50-100CS and squalane was added to the mixed surfactant aqueous solution, thereby preparing the liquid crystal compositions of the present invention. The weight ratio of a phenyl-modified silicone oil (SH556 or KF50-100CS) and squalane is 1:1 in each mixed oil. Moreover, as a comparative example, squalane alone was added to the mixed surfactant aqueous solution to prepare a liquid crystal composition for the comparative example.
The solubilized concentration of oil (mixed oil or squalane) in each liquid crystal composition was evaluated. The solubilized concentration (saturated concentration of solubilization) of oil was measured by sample appearance, for example, cloudiness or phase separation.
Then, a mixed oil of SH556 and squalane was added to each mixed surfactant aqueous solution, thereby preparing the liquid crystal compositions of the present invention. The weight ratio of SH556 and squalane is 1:1 in the mixed oil. Moreover, as comparative examples, squalane alone was added to the mixed surfactant aqueous solutions to prepare liquid crystal compositions for the comparative examples.
(§2) The solubilized concentration of oil (a mixed oil of SH556 and squalane or squalane) in each liquid crystal composition was evaluated. The solubilized concentration (saturated concentration of solubilization) of oil was measured by sample appearance, for example, cloudiness or phase separation.
Then, a mixed oil of SH556 and α-lipoic acid or a mixed oil of SH556 and oleic acid was added to the mixed surfactant aqueous solution, thereby preparing the liquid crystal compositions of the present invention. The weight ratio of SH556 and a fatty acid (α-lipoic acid or oleic acid) is 1:1 in each mixed oil.
as §2, with “α-lipoic acid, a mixed oil of SH556 and oleic acid, α-lipoic acid” for “squalane”, “oleic acid)” for “squalane)”
as §1

CCCCCCCCCCCCCCCCOC(=O)CCCCC(C)C [cetyl isooctanoate]
solubilized concentration of cetyl isooctanoate: up to 12.96 % by weight

CCCCCCCC/C=C\CCCCCCCC(=O)O [oleic acid]
solubilized concentration of oleic acid: up to 11.7 % by weight

CC(C)CCCC(C)CCCC(C)CCCCC(C)CCCC(C)CCCC(C)C (stereo not drawn) [squalane]
solubilized concentration of oil: could not be dissolved
solubilized concentration of squalane: up to 3.125 % by weight

phenyl trimethicone [SH556]
effect of enhancing solubility of squalane: showed the effect of enhancing solubility of squalane
solubilized concentration of oil: at least 25 % by weight

From US9809750B2, “Liquid crystal composition” (Nanoegg Research Laboratories, Inc., priority 2009, dated 2017)
